Data from publication PMC10800708, “Efficacies and ADME properties of redox active methylene blue and phenoxazine analogues for use in new antimalarial triple drug combinations with amino-artemisinins” (Frontiers in Pharmacology, 2024).
Several values for one entry are separate records, joined by “and”; a condition that tells them apart may be missing. Identical values can stand only once. Like-named read-outs stand apart in the source and are kept apart here. Blank lines part the entries; values can stand above or below the compound they belong to.

How the values were obtained:
[1] = system: Plasmodium falciparum DD2; test: Parasite lactate dehydrogenase (pLDH) assay over 72 h, CQ-resistant strain; format: cell-based
Description: (§1) The assay was performed in quadruplicate. The data were analyzed by nonlinear regression analysis using the GraphPad PRISM version 5.00 program to determine the IC50 of each compound.

[2] = system: Chinese Hamster Ovary (CHO) cell line, CHO-K1; test: MTT cytotoxicity assay; format: cell-based
Description: Cytotoxicity assays were conducted against the Chinese Hamster Ovary (CHO) cell line, ATCC CCL-61, strain CHO-K1. […] Cells were grown at 37°C in a humidified atmosphere of 5% CO2 and maintained by passage. Cells lines were seeded in 96-well microtitre plates at 10^4 cells/well in cell medium. […] DMSO (100 µL) was added to dissolve the MTT formazan precipitate, and the plates were gently agitated for 2 min to ensure homogeneity. Absorbance was measured at 540 nm using a Turner BioSystems, Inc. ModulusTM II Microplate Reader. The data were analyzed by nonlinear regression analysis using the GraphPad PRISM version 5.00 program to determine the IC50 of each compound.

[3] = system: Plasmodium falciparum NF54; test: Parasite lactate dehydrogenase (pLDH) assay over 72 h, CQ-sensitive strain; format: cell-based; settings: CQ-sensitive NF54, pLDH 72 h, n = 3, read-out: Plasmodium falciparum IC50 NF54
Description: as §1

[4] = Metabolic stability in human liver microsomes; format: in vitro ADME
Description: (§2) Eq. 4 Predicted t1/2 t1/2=−0.693/λ (4) Where λ is the slope of the Ln % parent remaining vs. time curve. • v. Plasma protein binding. Plasma protein binding was determined in pooled human plasma using an ultracentrifugation method. Stock solutions of test compounds (10 mM) were diluted in phosphate buffer and spiked into plasma in deep well 96-well plates (10 µM). An aliquot of each compound was immediately precipitated with ice cold acetonitrile containing the internal standard carbamazepine (0.1 μM). These served as total concentration samples. After incubation in a water bath at 37°C for 1 h, the samples were transferred to ultracentrifuge tubes in duplicate and centrifuged for 4 h at 37°C and 30,000 g (Optima L-80XP, Beckman). Following centrifugation, the supernatant was transferred to the plate containing the total concentration samples and precipitated with ice cold acetonitrile containing the internal standard. Analyte concentrations of all compounds were determined via LC-MS/MS (reverse phase Gemini NX-C18 column and Shimadzu HPLC coupled with an AB Sciex 3200 Q TRAP MS) as described above. • vi. Metabolic stability. A 5-point metabolic stability assay in human and mouse liver microsomes were performed in duplicate in 96-well plates. […] The cofactor NADPH was added, and the reactions were subsequently stopped at time points 5, 10, 30 and 60 min by removal of an aliquot and quenching with ice cold acetonitrile containing the internal standard. The supernatant of all samples was analysed via LC-MS/MS analysis (reverse phase Gemini NX-C18 column and Shimadzu HPLC and AB Sciex 3200 Q TRAP MS) as described above.

[5] = Metabolic stability in mouse liver microsomes; format: in vitro ADME
Description: as §2

[6] = In vivo PK, iv and oral, whole blood; parameters: species or system C57BL/6 mice
Description: • i. Animals. […] Food and water were available ad libitum. Mice were acclimatised to the experimental environment for 4-5 days prior to initiating the experiments. • ii. Oral drug administration. AD01 and PhX6 were prepared in 100% Millipore […] prepared in an aqueous suspension of 0.5% HPMC (w/v) containing 0.2% Tween 80 (v/v). The weighed compounds were sonicated and vortexed to ensure all solutions were homogenous. […] The total volume per administration was 200 μL. Blood samples were collected post-dose in lithium heparin microvials via tail bleeding at predetermined intervals at 0.5, 1, 3, 5, 8, 10 and 24 h. Samples were gently vortexed and stored at -80°C until analysis. • iii. Intravenous administration. AD01 and PhX6 were prepared in 100% Millipore […] prepared in an organic vehicle consisting of 10% N,N-dimethylacetamide, 30% polyethylene glycol 400 (PEG), 50% polypropylene glycol (PPG) and 10% ethanol (1:3:5:1, v/v) for intravenous (iv) dosing at 10 mg/kg. The total volume of administration was 80 μL. Blood samples were collected post-dose in lithium heparin microvials via tail bleeding at predetermined intervals at 0.16, 0.5, 1, 3, 5, 8, 10 and 24 h. Samples were gently vortexed and stored at -80°C until analysis. • iv. Sample processing and analysis. […] The mixture was vortexed vigorously for 1 min, and 5 μL of the supernatant were injected onto the analytical column following centrifugation (5590 g for 5 min). A Shimadzu HPLC and reverse phase Gemini NX-C18 column coupled to an AB Sciex 3200 Q TRAP MS was operated at unit resolution in the multiple reaction monitoring (MRM) mode as described above. […] Data analysis. Drug concentration versus time plots for each compound were used to determine maximal drug concentration C max, time T max to reach C max, elimination half-life t 1/2 and the area under the concentration-time curve from time zero to infinity, AUC0-inf. From these values the PK parameters clearance CL, volume of distribution Vd and oral bioavailability BA were determined using the non-compartmental analysis Microsoft Excel Add-In PKSolver ([Zhang et al., 2010]).

[7] = Plasma stability in pooled human plasma; format: in vitro ADME; settings: 37°C
Description: . […] The aqueous mobile phase was water with 0.1% formic acid and the organic mobile phase was acetonitrile with 0.1% formic acid. The gradient method has a flow rate of 0.8 mL/min, with a total run time of 2.5 min starting at 5% organic and increasing to 95% at 1.4 min, holding for 40 s before returning to 5% to re-equilibrate the column. • ii. Lipophilicity. Stock solutions (10 mM) of compounds were diluted to 100 μM in 96-well deep-well plate containing 300 µL of 1-octanol and 300 µL of phosphate buffer at pH 7.4. The plate was agitated on an orbital shaker at 750 rpm for 2 h. The organic and buffer layers of each well were transferred separately to a new analysis plate. The samples were analysed with the HPLC diode array detection as described for kinetic solubility. Samples from both layers were analysed to determine LogD7.4 values. • iii. Passive permeability. A parallel artificial membrane permeation assay (PAMPA) was used to assess the passive permeability of compounds with a 96-well MultiScreen filter plate ([…] pore size, Millipore). The filter plate was precoated with 5% hexadecane in hexane. Stock solutions of compounds were diluted to 1 mM in a donor buffer (pH 6.5). Lucifer yellow was added to the apical wells of the precoated MultiScreen plate containing compound donor solution. The donor buffer solutions were spiked with each test compound (1 mM). The acceptor-buffer solution was prepared by adding 10 μL DMSO to 990 μL acceptor buffer (pH 7.4) and 250 μL were added to the basolateral (acceptor) wells. The donor plate was carefully inserted into the acceptor plate and incubated at room temperature for 4 h. After the incubation period, 50 μL of samples from the acceptor plate were transferred to a round bottom 96-well plate, together with 30 μL of donor buffer for matrix matching. Theoretical equilibrium samples for each test compound were prepared by adding 150 μL of donor solutions to 250 μL acceptor solutions and left at room temperature. These theoretical equilibrium samples represent complete transfer of the compound into the donor well. For the theoretical equilibrium samples, 80 μL were added to the analysis plate. Lastly, 160 μL of the internal standard carbamazepine (0.1 μM) was added to all acceptor and equilibrium samples. A portion of the sample containing Lucifer yellow was analyzed on a BioRad iMarkTM Microplate Absorbance Reader (BioRad, Hercules, CA, United States; […]. Samples were analysed using reverse phase Gemini NX-C18 column (5 μm, 2.1 mm × 50 mm) with a Shimadzu HPLC coupled with an AB Sciex 3200 Q TRAP MS). […]. Plasma stability. Stock solutions of compounds in DMSO (10 mM) were used to spike pooled human plasma. […]
. Plasma protein binding was determined in pooled human plasma using an ultracentrifugation method. […]

[8] = Kinetic solubility in PBS; format: physicochemical; settings: phosphate buffer saline (PBS), aqueous buffer, kinetic from dmso stock
Description: . […] The aqueous mobile phase was water with 0.1% formic acid and the organic mobile phase was acetonitrile with 0.1% formic acid. The gradient method has a flow rate of 0.8 mL/min, with a total run time of 2.5 min starting at 5% organic and increasing to 95% at 1.4 min, holding for 40 s before returning to 5% to re-equilibrate the column. • ii. Lipophilicity. Stock solutions (10 mM) of compounds were diluted to 100 μM in 96-well deep-well plate containing 300 µL of 1-octanol and 300 µL of phosphate buffer at pH 7.4. The plate was agitated on an orbital shaker at 750 rpm for 2 h. The organic and buffer layers of each well were transferred separately to a new analysis plate. The samples were analysed with the HPLC diode array detection as described for kinetic solubility. Samples from both layers were analysed to determine LogD7.4 values. • iii. Passive permeability. A parallel artificial membrane permeation assay (PAMPA) was used to assess the passive permeability of compounds with a 96-well MultiScreen filter plate ([…] pore size, Millipore). The filter plate was precoated with 5% hexadecane in hexane. Stock solutions of compounds were diluted to 1 mM in a donor buffer (pH 6.5). Lucifer yellow was added to the apical wells of the precoated MultiScreen plate containing compound donor solution. The donor buffer solutions were spiked with each test compound (1 mM). The acceptor-buffer solution was prepared by adding 10 μL DMSO to 990 μL acceptor buffer (pH 7.4) and 250 μL were added to the basolateral (acceptor) wells. The donor plate was carefully inserted into the acceptor plate and incubated at room temperature for 4 h. After the incubation period, 50 μL of samples from the acceptor plate were transferred to a round bottom 96-well plate, together with 30 μL of donor buffer for matrix matching. Theoretical equilibrium samples for each test compound were prepared by adding 150 μL of donor solutions to 250 μL acceptor solutions and left at room temperature. These theoretical equilibrium samples represent complete transfer of the compound into the donor well. For the theoretical equilibrium samples, 80 μL were added to the analysis plate. Lastly, 160 μL of the internal standard carbamazepine (0.1 μM) was added to all acceptor and equilibrium samples. A portion of the sample containing Lucifer yellow was analyzed on a BioRad iMarkTM Microplate Absorbance Reader (BioRad, Hercules, CA, United States; […]. Samples were analysed using reverse phase Gemini NX-C18 column (5 μm, 2.1 mm × 50 mm) with a Shimadzu HPLC coupled with an AB Sciex 3200 Q TRAP MS). […]. Plasma stability. Stock solutions of compounds in DMSO (10 mM) were used to spike pooled human plasma. 90 μL of each sample was transferred in duplicate to 6 different wells of a 96-deep well plate. An aliquot of each sample was immediately quenched with ice cold acetonitrile containing the internal standard carbamazepine (0.1 µM), after which the plate was incubated in a water bath (37°C for […]). Aliquots of samples were removed at 5, 15, 40, 60 and 180 min and quenched with ice cold acetonitrile. After samples of the final time point were precipitated, the supernatant was transferred to a round bottom 96-well plate for analysis by LC-MS/MS using a reverse phase Gemini NX-C18 column (5 μm, 2.1 mm × 50 mm) with a Shimadzu HPLC coupled with an AB Sciex 3200 Q TRAP MS) operated at unit resolution in the multiple reaction monitoring (MRM) mode. The aqueous phase consisted of water with 0.1% formic acid and the organic mobile phase consisted of methanol and acetonitrile (1:1, (v/v)) with 0.1% formic acid. […]. The peak area ratios were used to calculate the amount of parent compound remaining and t1/2 in plasma, using the following equations.

[9] = system: multidrug resistant Pf K1 strain; parameters: method as in Wittlin et al., 2013; settings: tritiated hypoxanthine assay; ref Wittlin et al., 2013; read-out: Activity against multidrug resistant Pf K1 strain; cited from earlier work
[10] = parameters: method as in Wittlin et al., 2013; settings: ref Wittlin et al., 2013; cited from earlier work
[11] = C57BL/6, mouse, 10 mg/kg, mice, intravenous, whole blood
[12] = C57BL/6, mouse, whole blood, po, 5 mg/kg

Compound: C[C@H]1[C@H](N2CCS(=O)(=O)CC2)O[C@@H]2O[C@@]3(C)CC[C@H]4[C@H](C)CC[C@@H]1[C@@]24OO3 [AMS, artemisone]
Resistance index ([1]; IC50 (resistant strain)/IC50 (sensitive strain), DD2/NF54): 1.2 | IC50 ([1]; Plasmodium falciparum, CQ-resistant DD2, pLDH 72 h, n = 3, read-out: Plasmodium falciparum IC50 DD2): 5.48 ± 2.03 nM | IC50 ([2]; Cricetulus griseus, CHO cells, MTT): > 249000 nM | Selectivity index CHO/resistant Pf strain ([2]; cytotoxicity IC50/activity IC50, CHO/DD2): >1,000 | Selectivity index CHO/sensitive Pf strain ([2]; cytotoxicity IC50/activity IC50, CHO/NF54): >1,000 | IC50 [3]: 4.5 ± 2.42 nM

CLint scaled [4]: 4 mL/min/kg | CLint scaled [5]: 22.3 mL/min/kg | Vd [6, 11]: 1 ± 0.16 L/kg | clearance [6, 11]: 10.2 ± 0.93 mL/min/kg | half-life ([6]; C57BL/6, mouse, whole blood, iv, 10 mg/kg, mice, intravenous, whole blood, read-out: t1/2 (converted)): 1.2 h | Cmax [6, 12]: 6.32 ± 1.15 µM | Tmax [6, 12]: 0.7 ± 0.12 h | AUC0-∞ ([6]; mice, intravenous, whole blood): 1795 ± 198 µmol·min/L | t1/2 ([6]; mice, intravenous, whole blood): 1.12 ± 0.13 h | BA ([6]; mice, oral bioavailability): 8% and 8 ± 2% | AUC0-∞ ([6]; mice, oral gavage: AD01 4.6, PhX6 4.5, DpNEt 5 mg/kg): 550 ± 148 µmol·min/L | half-life [7]: > 2.5 h | solubility at 2 h ([8]; PBS pH 2, read-out: Predicted solubility pH 2): > 150 µM | solubility at 2 h ([8]; PBS pH 6.5, read-out: Predicted solubility pH 6.5): > 150 µM | solubility at 2 h ([8]; PBS pH 7.4, read-out: Predicted solubility pH 7.4): > 150 µM
Compound: CCNC(=S)NN=C(c1ccccn1)c1ccccn1 [DpNEt]

Compound: CCN(CC)c1ccc2nc3c4ccccc4/c(=N\c4ccncc4)cc-3oc2c1 [SSJ-183]
IC50 [9]: 7.6 nM | half-life [10]: 10.3 h
